Laboratory results published in US20230407243A1, “GENETIC PLATFORM TO INVESTIGATE THE FUNCTIONS OF BACTERIAL DRUG EFFLUX PUMPS” (priority 2022, published 2023).

Key:
Assay in all cases: MIC of strains harboring ASKA plasmids
Type in all cases: cell-based, Escherichia coli
EKO-35 pitA (pCA24N) = settings: 0.1 mM IPTG; no plasmid selection
EKO-35 yjfC (pCA24N) = settings: 0.1 mM IPTG; for MIC, EKO-35 yjfC (pCA24N), Chlor +: 4 μg/mL chloramphenicol selection; for MIC, EKO-35 yjfC (pCA24N), Chlor −: no plasmid selection
EKO-35 rspA (pCA24N) = settings: 0.1 mM IPTG; for MIC, EKO-35 rspA (pCA24N), Chlor +: 4 μg/mL chloramphenicol selection; for MIC, EKO-35 rspA (pCA24N), Chlor −: no plasmid selection
EKO-35 tufA (pCA24N) = settings: 0.1 mM IPTG; for MIC, EKO-35 tufA (pCA24N), Chlor +: 4 μg/mL chloramphenicol selection; for MIC, EKO-35 tufA (pCA24N), Chlor −: no plasmid selection
EKO-35 gyrB (pCA24N) = settings: 0.1 mM IPTG; for MIC, EKO-35 gyrB (pCA24N), Chlor +: 4 μg/mL chloramphenicol selection; for MIC, EKO-35 gyrB (pCA24N), Chlor −: no plasmid selection

N#Cc1ccc(-c2c(NC(=O)C(Cl)Cl)oc(-c3cccs3)c2C#N)cc1 [compound 2]
>5 μg/mL: MIC, EKO-35 pitA (pCA24N), Chlor − (EKO-35 pitA (pCA24N)) | MIC, EKO-35 yjfC (pCA24N), Chlor + (EKO-35 yjfC (pCA24N)) | MIC, EKO-35 yjfC (pCA24N), Chlor − (EKO-35 yjfC (pCA24N)) | MIC, EKO-35 rspA (pCA24N), Chlor + (EKO-35 rspA (pCA24N)) | MIC, EKO-35 rspA (pCA24N), Chlor − (EKO-35 rspA (pCA24N)) | MIC, EKO-35 tufA (pCA24N), Chlor + (EKO-35 tufA (pCA24N)) | MIC, EKO-35 tufA (pCA24N), Chlor − (EKO-35 tufA (pCA24N)) | MIC, EKO-35 gyrB (pCA24N), Chlor + (EKO-35 gyrB (pCA24N)) | MIC, EKO-35 gyrB (pCA24N), Chlor − (EKO-35 gyrB (pCA24N))

Cn1cc(Br)c(-c2cccc(NC(=O)Nc3ccc(OC(F)(F)F)cc3)c2)n1 [compound 14]
>5 μg/mL: MIC, EKO-35 pitA (pCA24N), Chlor − (EKO-35 pitA (pCA24N)) | MIC, EKO-35 yjfC (pCA24N), Chlor + (EKO-35 yjfC (pCA24N)) | MIC, EKO-35 yjfC (pCA24N), Chlor − (EKO-35 yjfC (pCA24N)) | MIC, EKO-35 rspA (pCA24N), Chlor + (EKO-35 rspA (pCA24N)) | MIC, EKO-35 rspA (pCA24N), Chlor − (EKO-35 rspA (pCA24N)) | MIC, EKO-35 tufA (pCA24N), Chlor + (EKO-35 tufA (pCA24N)) | MIC, EKO-35 tufA (pCA24N), Chlor − (EKO-35 tufA (pCA24N)) | MIC, EKO-35 gyrB (pCA24N), Chlor + (EKO-35 gyrB (pCA24N)) | MIC, EKO-35 gyrB (pCA24N), Chlor − (EKO-35 gyrB (pCA24N))
